Reference: patent publication US6436911B1, “IL-12 production inhibitor” (Seikagaku Corporation, priority 1999, dated 2002)

Tests used:
[1] = test system: peritoneal macrophages isolated from C3H/HeN mice; assay: IL-12 production in peritoneal macrophages from C3H/HeN mice (LPS + IFN-γ); format: cell-based; conditions: LPS 200 ng/ml, IFN-γ 2 U/ml, 24 hours, various L3 concentrations (FIG. 14)
Experimental: Ice-cooled phosphate buffered saline (PBS) was injected into abdominal cavities of C3H/HeN mice. After the abdomen of each mouse was massaged, the PBS was collected and centrifuged to obtain macrophages. A cell suspension was prepared by suspending the obtained macrophages in RPMI1640 medium (Sigma) containing 200 ng/ml of LPS, 2 U/ml of recombinant mouse interferon-γ (IFN-γ) and 10% fetal bovine serum at a concentration of 1×10^6 cells/ml. 100 μl of the cell suspension was dispensed on a 96-well flat-bottom plate and further 100 μl of L3 solution of which concentration was adjusted to be twice the final concentration in the RPMI1640 medium was added thereto. Then, the cells were cultured at 37° C. in the presence of 5% CO2 for 24 hours.
(§1) Subsequently, the plate was centrifuged to collect the culture supernatant. The IL-12 concentration in the supernatant was measured as described above.

[2] = test system: synovial cells collected from human rheumatoid arthritis patients; assay: IL-12 p70 production in synovial cells from rheumatoid arthritis patients (LPS + IFN-γ); format: cell-based; conditions: LPS 500 ng/ml, IFN-γ 50 U/ml
Experimental: A cell suspension was prepared by suspending synovial cells collected from human rheumatoid arthritis patients in RPMI1640 medium (Sigma) containing 500 ng/ml of LPS, 50 U/ml of recombinant mouse interferon-γ (IFN-γ) and 10% fetal bovine serum at a concentration of 1×10^6cells/ml.
100 μl of the aforementioned cell suspension was dispensed to a 96-well flat-bottom plate and further 100 μl of L4 solution of which concentration was adjusted to be twice the final concentration in the RPMI1640 medium was added thereto. Then, the cells were cultured at 37° C. in the presence of 5% CO2 for 24 hours.
as §1

[3] = test system: IL-12; assay: Plasma IL-12 level (IL-12 p70 ELISA) in MRL-lpr/lpr mice after administration; format: in vivo; conditions: day before autopsy
Source text: Plasma IL-12 levels were examined using MRL-lpr/lpr mice treated with and without L4. Macrophages from MRL-lpr/lpr mice are known to markedly produce IL-12 and their serum IL-12 level is high (J. Exp. Med., 183, pp. 1447-1459 (1996)).
(§2) MRL lpr/lpr mice, C57BL/6 mice and ICR mice as normal controls were purchased from Japan Charles River Co., Ltd. and preliminarily maintained for several weeks before divided into groups. Blood was collected from the orbital venous plexus, and they were allocated according to the plasma creatinine level (CRE) as a first marker so that there would be no difference in the average value and the standard deviation for the creatinine level among the groups. They were also grouped so that there would be no difference in the plasma nitrogen level (BUN), white blood cell count (WBC), platelet count (PLT) and weight between groups as far as possible.
The test substances were administered from the next day of the grouping. […]
Blood was collected from the orbital venous plexus at the time of the grouping and on the day before the autopsy. The IL-12 concentration in blood plasma was measured by using an IL-12 p70 ELISA kit (Endogen, Inc.).
(§3) The average value and the standard deviation were calculated for the measured values obtained as above and the statistical significance was analyzed by Williams' multiple comparison test. […]

[4] = test system: MRL-lpr/lpr mice; assay: Hematological test: white blood cell count (WBC) in blood of MRL-lpr/lpr mice; format: in vivo; conditions: day before autopsy
Source text: as §2
The test substances were administered from the next day of the grouping. Each of the test substances was dissolved in distilled water at a predetermined concentration to prepare a solution to be administered. The solution was intermittently administered 3 times per week for 4 weeks (total 12 doses). […]
Blood was collected from the orbital venous plexus at the time of the grouping and on the day before the autopsy. The white blood cell count (WBC) was measured by using an automatic cytometer for multiple test items (Sysmex K-2000: Toa Medical Electronics).
as §3

[5] = test system: peritoneal macrophages isolated from MRL mice; assay: LPS-stimulated IL-12 p70 production in peritoneal macrophages from MRL lpr/lpr mice; format: cell-based; conditions: for IL-12 p70 production, simultaneous treatment with LPS and test substance: LPS 100 ng/ml, various concentrations, 8-week-old and 39-week-old MRL mice (FIG. 6; L4L4 FIG. 12)
Experimental: Five to seven milliliters of ice-cooled Hank's balanced salt solution was injected in the abdominal cavities of 8- to 39-week-old MRL lpr/lpr mice and extracted 5 minutes later to collect resident peritoneal cells. The collected cells were cultured overnight in RPMI medium contained in a 96-well flat-bottom plate at 37° C. in the presence of 5% CO2. After the cultivation, non-adherent cells were removed and adherent cells were used as peritoneal macrophages for the experiment.
The cells were treated with lipopolysaccharide (LPS, List Biological Laboratories, Inc.) for 24 hours to stimulate IL-12 production. The concentration of IL-12 p70 in the cell culture supernatant was measured by using an IL-12 p70 ELISA kit (Endogen, Inc.) to evaluate the IL-12 production. As for the measured values, the average value and the standard deviation were obtained. Unless otherwise mentioned, the statistical significance was examined by the Williams' multiple comparison test.
The stimulation was performed for 24 hours in the medium containing LPS (100 ng/ml) and various concentrations of L4, and then the IL-12 production was evaluated.
Macrophages were treated with 100 ng/ml of LPS for 0, 2 or 6 hours, and then the medium was replaced with a fresh medium containing 1000 ng/ml of L4 or a fresh medium only (L4(-)) (consequently, IL-12 produced by the pretreatment was removed). 24 hours after the replacement of the medium, the IL-12 production was evaluated.
First, macrophages were treated with L4 at various concentrations for 24 hours and the medium was replaced with a medium containing 100 ng/ml of LPS. 24 hours after the replacement of the medium, the IL-12 production was evaluated.
The IL-12 production in the macrophages of MRL-lpr/lpr mice, pretreated with or without 1000 ng/ml of L4 for 24 hours then treated with 100 ng/ml of LPS for 24 hours (L4 pretreatment), and the treated with 100 ng/ml LPS together with or without 1000 ng/ml of L4 (simultaneous treatment), were compared. In FIG. 11, * and ** indicate that there was statistical significance at levels of p<0.05 and p<0.01, respectively, according to the Student's t-test.

[6] = test system: peritoneal macrophages isolated from C57BL/6 mice; assay: LPS-stimulated IL-12 p70 production in peritoneal macrophages from C57BL/6 mice; format: cell-based
[7] = test system: MRL-lpr/lpr mice; assay: Biochemical blood test: plasma creatinine (CRE) and urea nitrogen (BUN) in MRL-lpr/lpr mice; format: in vivo; conditions: Example 3; L4 3.2 mg/kg i.n.; 6 weeks; day before autopsy (FIG. 4)
Experimental: 9-Week old MRL lpr/lpr mice, C57BL/6 mice and ICR mice were purchased from Japan Charles River Co., Ltd. and preliminarily maintained for 6 weeks before divided into groups. The groups used were as follows.
Each of the test substance was dissolved in distilled water at a predetermined concentration to prepare a solution to be administered. The solution was intermittently administered 3 times per week for 6 weeks (total […]). Observation was performed for 45 days from the start of administration through the autopsy. Other conditions and methods were the same as those of Example 2.
Blood was collected from the orbital venous plexus and plasma creatinine level (CRE) and plasma urea nitrogen level (BUN) were measured by using an automatic analyzer for clinical chemistry (COBAS MIRA S: Nippon Roche) at the time of the grouping and on the day before the autopsy.

CC(=O)N[C@H]1C(O)O[C@H](CO)[C@@H](O[C@@H]2O[C@H](COS(=O)(=O)O)[C@H](O)[C@H](O)[C@H]2O)[C@@H]1O (stereo partly drawn) [L3, Gal(6S)β1-4GlcNAc]
IL-12 production of macrophages [1]: inhibited IL-12 production of macrophages in a dose-dependent manner

CC(=O)N[C@H]1C(O)O[C@H](COS(=O)(=O)O)[C@@H](O[C@@H]2O[C@H](COS(=O)(=O)O)[C@H](O)[C@H](O)[C@H]2O)[C@@H]1O (stereo partly drawn) [L4, Gal(6S)β1-4GlcNAc(6S)]
IL-12 production in synovial cells at 1000 ng/ml ([2]; 1000 ng/ml L4, 24 hours (FIG. 13)): almost halved | IL-12 production in synovial cells ([2]; 24 hours, various L4 concentrations (FIG. 13)): tendency that addition of L4 inhibited IL-12 production | IL-12 level in plasma ([3]; Example 2, L4 1.6 mg/kg i.n. and 80 mg/kg p.o., 3 times per week for 4 weeks, p<0.05/p<0.01 (FIG. 2)): significant inhibition of the increase in IL-12 | IL-12 level in plasma ([3]; Example 3, L4 3.2 mg/kg i.n., 3 times per week for 6 weeks, p<0.01 (FIG. 5)): significant inhibition of the increase in the IL-12 | white blood cell count (WBC) in blood ([4]; Example 2, low dose L4 administered groups, 3 times per week for 4 weeks, vs DW group, p<0.05 (FIG. 1)): significant inhibition of the increase in WBC | white blood cell count (WBC) in blood ([4]; Example 3, L4 3.2 mg/kg i.n., 3 times per week for 6 weeks, p<0.05 (FIG. 3)): significant inhibition of the increase in WBC | IL-12 p70 production, L4 pretreatment compared with simultaneous treatment ([5]; 1000 ng/ml L4, 100 ng/ml LPS, 24 hours (FIG. 11)): inhibits IL-12 production more efficiently compared with the simultaneous treatment | IL-12 p70 production, stimulation with LPS after pretreatment with L4, high doses ([5]; L4 100 ng/ml or more, 24 hours, then LPS 100 ng/ml 24 hours (FIG. 9)): almost completely inhibited | IL-12 p70 production, stimulation with LPS after pretreatment with L4 ([5]; L4 various concentrations 24 hours, then LPS 100 ng/ml 24 hours (FIG. 9)): L4 pretreatment inhibits the IL-12 production | IL-12 p70 production, treatment with L4 after preliminary stimulation with LPS ([5]; LPS 100 ng/ml for 2 and 6 hours, then 1000 ng/ml L4, 24 hours (FIG. 8)): Inhibition of the IL-12 production by L4 was also observed | IL-12 p70 production, simultaneous treatment with LPS and test substance ([5]; 24 hours): dose-dependent inhibitory effect on the IL-12 production | IL-12 p70 production, stimulation with LPS after pretreatment with L4 ([6]; C57BL/6 mice, pretreated with L4 for 36 hours (FIG. 10)): The same results were also obtained | IL-12 p70 production, simultaneous treatment with LPS and L4 ([6]; LPS 100 ng/ml, 24 hours, various concentrations of L4, C57BL/6 mice (FIG. 7)): The same result was also obtained | plasma creatinine level (CRE) [7]: significant decrease | plasma urea nitrogen level (BUN) [7]: significant decrease

CC(=O)NC1C(O)OC(COS(=O)(=O)[O-])C(OC2OC(COS(=O)(=O)[O-])C(O)C(OC3OC(COS(=O)(=O)[O-])C(OC4OC(COS(=O)(=O)[O-])C(O)C(O)C4O)C(O)C3NC(C)=O)C2O)C1O.[Na+].[Na+].[Na+].[Na+] [L4L4, Gal(6S)β1-4GlcNAc(6S)β1-3Gal(6S)β1-4GlcNAc(6S)]
IL-12 p70 production, simultaneous treatment with LPS and test substance ([5]; 24 hours): The same result was obtained
